# Measured values reported in publication PMC11133798, “Vosoritide treatment for children with hypochondroplasia: a phase 2 trial” (eClinicalMedicine, 2024).
# Where “and” joins values, the source holds several entries; their conditions need not be identical. Equal values may be shown once.
# Legend:
# [1] = test system: children with hypochondroplasia; assay: Phase 2 trial secondary outcomes: bone age, sitting height ratio, arm span minus height; assay type: in vivo, human
# Experimental: (§1) Secondary outcomes included the change in body proportions as measured by sitting height to standing height ratio and arm span minus standing height, as well as the change in bone age to chronological age ratio after 12 months of therapy. Sitting height was measured three times at each visit using a sitting height table. The average of the three values was used. Sitting height to standing height ratio and arm span minus standing height were standardized for age and sex using available reference data and SDS were calculated.[11]^,[12] Bone age X-rays were read by a single reviewer who was blinded to participant ID, age and time point. Exploratory endpoints included pharmacokinetic parameters, pharmacodynamic markers including collagen X biomarker (CXM) levels and urine cGMP production, and changes in quality of life as measured by the QoLISSY scale.[13] CXM levels in serum were measured in duplicate via an ELISA assay at the Shriners Hospitals for Children in Portland, Oregon as previously described.[14] The average of the two values was used for analysis. Urine samples were obtained for cGMP measurement at baseline and 60, 120, and 240 min after vosoritide injections at the Day 1, Month 6 and Month 12 visits. cGMP levels were assayed at ICON Laboratories (Farmingdale, NY) and were normalized to urine creatinine levels at each time point.
# (§2) No formal power calculations were done for this proof of principle study. Sample size was determined based on logistical feasibility. Medication adherence was calculated using the number of returned empty vials divided by the number of days of prescribed therapy. Demographics and clinical characteristics were summarized with mean and standard deviation (SD), median and interquartile (IQR) for numerical variables, frequency and proportion for categorical variables. Primary and secondary clinical outcomes were summarized with mean (SD) for the 6-month observation period and the 12-month treatment period. Paired t-tests were carried out to compare the difference between the treatment and observation periods. The corresponding p-value and 95% confidence interval (CI) were reported. Box and whisker plots were used for both primary endpoints (annualized growth velocity and height SDS) and exploratory endpoints (CXM and cGMP) to visualize the trends for the change from baseline to each of the follow-up visits. Safety data (AEs) were summarized as count and percentage of patients as well as the number of total occurrences per each listed AE for the observation period and the treatment period, respectively. As exploratory analyses, the primary endpoints were stratified based on age, baseline growth velocity and baseline height SDS. The summaries of mean (SD) for each visit, mean differences between treatment and observation periods, and the corresponding p-value and 95% CI were all reported. Parent reported quality of life using the QoLISSY scale was also reported with a similar tabular format. Data were analyzed using SAS for Windows version 9.4 (SAS Institute Inc., Cary, NC). A two-sided test with a significance level of 0.05 was used for all hypothesis tests.
# [2] = test system: children with achondroplasia; conditions: cited from earlier work
# Source text: Vosoritide is a c-type natriuretic peptide (CNP) analog that upon binding its receptor on chondrocytes inhibits the mitogen-activated protein kinase (MAPK) pathway. This pathway is downstream of FGFR3 and is activated in hypochondroplasia and achondroplasia. […] Based on this study and additional trials, vosoritide has now been approved in numerous countries for use in children ... || The standing height SDS increased by 0.37 SD during the year of treatment or 0.41 SD using hypochondroplasia specific growth charts. This is slightly greater than the 0.27 SD increase seen in the Phase 3 study of children with achondroplasia. In prior studies with children with achondroplasia, the increase in growth velocity and gains in height SDS have persisted over multiple years.[16]^,[17] Participants in the current study with positive responses to therapy have been enrolled in an ongoing extension study to assess if this will be true in hypochondroplasia as well. It is reassuring that th ...
# [3] = test system: patients with achondroplasia; conditions: cited from earlier work
# [4] = test system: children with hypochondroplasia; assay: Phase 2 open-label trial: height efficacy outcomes (annualized growth velocity, height SDS); assay type: in vivo, human; conditions: for Annualized growth velocity, treatment period / Annualized growth velocity SDS, treatment period: SD
# Experimental: The study consists of a 6-month observation period to establish a baseline annualized growth velocity followed by a 12-month intervention period during which vosoritide is administered daily via subcutaneous injection at a dose of 15 μg/kg/day, the same dose as used in the Phase 3 trial of children with achondroplasia.[7] […] Details of the protocol can be found in the Supplementary Materials.
# The study has 3 prespecified co-primary outcomes: 1. To evaluate the safety and tolerability of daily subcutaneous injections of vosoritide administered for 12 months in patients with selected genetic causes of short stature, 2. To evaluate the change from baseline in age-sex standardized annualized growth velocity after 12 months of daily SC injections of vosoritide in patients with selected genetic causes of short stature, and 3. To evaluate the change from baseline in age-sex standardized height SDS after 12 months of daily SC injections of vosoritide in patients with selected genetic causes of short stature. Annualized growth velocity was standardized using data from the First Zurich Longitudinal Study of Growth and Development[9] as it includes growth velocity data starting at age 2.5 years. Height SDS was calculated using the United States CDC growth charts.[8] Hypochondroplasia specific height SDS was calculated using recently published hypochondroplasia growth curves.[10] To measure these outcomes, the following 3 co-primary endpoints were specified: 1. The incidence of adverse events per participant, 2. The change from baseline in age-sex standardized annualized growth velocity after 12 months of treatment, and 3. The change from baseline in age-sex standardized height SDS after 12 months of treatment. Height was measured five times at each study visit on a wall-mounted calibrated Harpenden stadiometer. The average of all five values was used. Safety assessments included routine laboratory evaluations at each visit, baseline and Month 12 echocardiograms, electrocardiograms at each visit, vital signs measurements, and spine X-rays at Day 1 and Month 12.
# as §2
# urine cGMP = assay: Urine cGMP after vosoritide injection, normalized to urine creatinine; assay type: in vivo, human
# Experimental: as §1
sequence,measurement,setting,value
"PGQEHPNARKYKGANKKGLSKGCFGLKLDRIGSMSGLGC (disulfide) [vosoritide, recombinant 39-amino-acid C-type natriuretic peptide analog expressed in E. coli, cyclic by an intramolecular disulfide bond]","Bone age, Month 12","[1]; 15 μg/kg/day SC, mean (SD), Day 1 61.42 (30.40), single blinded reader, SD",71.58 (32.17) months
same,"Bone age, change during treatment period","[1]; Day 1 to Month 12, mean (95% CI), p<0.0001","10.17 (7.03, 13.31) months"
same,"Bone age/chronological age, change during treatment period","[1]; Day 1 to Month 12, mean (95% CI), p=0.67","0.01 (−0.03, 0.05)"
same,"Sitting height ratio unadjusted, change during treatment period","[1]; Day 1 to Month 12, mean (95% CI), observation period −0.001 (−0.003, 0.001)","−0.009 (−0.01, −0.006)"
same,"Arm span minus height unadjusted, change during treatment period","[1]; Day 1 to Month 12, mean (95% CI), observation period −0.66 (−1.72, 0.40)","−0.76 (−1.55, 0.04)"
same,"Bone age/chronological age, Month 12","[1]; mean (SD), Day 1 0.78 (0.14), SD",0.79 (0.15)
same,"Arm span minus height unadjusted, Month 12","[1]; mean (SD), Day 1 −6.26 (2.83), protocol: measurements in centimeters, SD",−7.01 (3.21)
same,"Sitting height ratio unadjusted, Month 12","[1]; sitting height/standing height, mean (SD), Day 1 0.63 (0.02), SD",0.62 (0.02)
same,Adjusted mean difference in annualized growth velocity,"[2]; Phase 3, placebo-controlled, children with achondroplasia, 15 μg/kg/day",1.57 cm/year
same,Increase in standing height SDS,[2]; Phase 3 study of children with achondroplasia,0.27 SD
same,Mean gain in height standard deviation score,"[3]; achondroplasia, 15 µg/kg, after 42 months of intervention, ref 2 (protocol list)",1.03 SD
same,Efficacy of 15 µg/kg/day dose versus 30 µg/kg/day dose,"[3]; annualized growth velocity, Phase II achondroplasia, ref 2 (protocol list)",equally efficacious to the 30 µg/kg/day dose
same,Symptomatic hypotensive episode,[3]; in vivo,a single patient
same,"Annualized growth velocity, treatment period","[4]; 15 μg/kg/day SC daily, 12-month treatment period, n=24, mean (SD), 6-month observation period 5.12 (1.36)",6.93 (0.93) cm/year
same,"Standing height SDS, change during treatment period","[4]; CDC growth charts, Day 1 to Month 12, n=24, mean (95% CI), change in observation period 0.01 (−0.06, 0.08)","0.37 (0.27, 0.47) SD"
same,"Hypochondroplasia specific standing height SDS, change during treatment period","[4]; Day 1 to Month 12, n=24, mean (95% CI), change in observation period 0.03 (−0.12, 0.19)","0.41 (0.32, 0.50) SD"
same,"Annualized growth velocity SDS, treatment period","[4]; age-sex standardized (First Zurich Longitudinal Study), 15 μg/kg/day SC, 12-month treatment, n=24, mean (SD), observation period −1.14 (1.29)",1.12 (1.05) cm/year
same,"Annualized growth velocity, Month 6 versus Month 12 visit","[4]; n=24, on treatment",no significant difference
same,"Increase in annualized growth velocity, single participant with treatment interruption","[4]; person, vosoritide suspended for 40 days for immune thrombocytopenia",2.4 cm/year
same,"Annualized growth velocity, treatment period","[4]; subgroup Age 3 to <5 Year (N=10), 12-month treatment, 15 μg/kg/day SC, mean (SD), observation 5.97 (1.38)",7.32 (0.79) cm/yr
same,"Annualized growth velocity SDS, treatment period","[4]; subgroup Age 3 to <5 Year (N=10), mean (SD), observation -0.82 (1.12)",1.23 (1.01) cm/yr
same,"Annualized growth velocity, treatment period","[4]; subgroup Age 5 to <9 Year (N=11), mean (SD), observation 4.27 (0.75)",6.91 (0.80) cm/yr
same,"Annualized growth velocity SDS, treatment period","[4]; subgroup Age 5 to <9 Year (N=11), mean (SD), observation -1.93 (0.81)",1.29 (1.13) cm/yr
same,"Annualized growth velocity SDS, treatment period","[4]; subgroup Age 9 to <11 Year (N=3), mean (SD), observation 0.71 (1.12)",0.16 (0.38) cm/yr
same,"Annualized growth velocity, treatment period","[4]; subgroup Age 9 to <11 Year (N=3), mean (SD), observation 5.37 (1.53)",5.71 (0.98) cm/yr
same,"Annualized growth velocity, treatment period","[4]; subgroup GV baseline <=5.0 (N=14), mean (SD), observation 4.17 (0.59)",6.91 (1.01) cm/yr
same,"Annualized growth velocity, treatment period","[4]; subgroup GV baseline > 5.0 (N=10), mean (SD), observation 6.45 (0.94)",6.96 (0.85) cm/yr
same,"Annualized growth velocity, treatment period","[4]; subgroup Height SDS baseline -3.5 to <=-3.0 (N=9), mean (SD), observation 5.17 (0.89)",6.88 (0.84) cm/yr
same,"Annualized growth velocity, treatment period","[4]; subgroup Height SDS baseline <=-3.5 (N=7), mean (SD), observation 4.67 (1.11)",6.64 (1.14) cm/yr
same,"Annualized growth velocity, treatment period","[4]; subgroup Height SDS baseline >-3.0 (N=8), mean (SD), observation 5.46 (1.95)",7.24 (0.86) cm/yr
same,"Change in annualized growth velocity (SDS), single participants without the Asn540Lys variant in FGFR3","[4]; two participants (Gly342Cys, Ser351Phe per Table 1), one value each, cohort mean 2.26 SD",2.5 SD and 2.4 SD
same,Average maximum cGMP increase from baseline across visits,"urine cGMP; Day 1, Month 6, Month 12 compared","not significantly different at Day 1, Month 6 or Month 12"
same,Time of peak urine cGMP after administration,"urine cGMP; samples at baseline, 60, 120 and 240 min after injection",2 h
same,Time to evident increase in urine cGMP after administration,"urine cGMP; samples at baseline, 60, 120 and 240 min after injection, Day 1, Month 6, Month 12",≤ 1 h
